Entries after “also recorded” stand apart in the source; their conditions may differ.
What was measured:
BALB/c splenocytes = assay: Standard mixed lymphocyte reaction (MLR); assay type: cell-based, mice
Method: (§1) FLT3 inhibition decreases DC-based proliferation of T cells. For these experiments, DCs were generated as above from BALBc mice. The cells were left untreated or were treated with CEP701 and then plated with C57BL/6 splenocytes at the ratios shown. After 3 days, ^3H was added, and the proliferation determined. […] In FIG. 2b, BALB/c splenocytes were substituted for DCs, in order to test the inhibition of CEP701 on a standard mixed lymphocyte reaction (MLR). […] To determine whether T cell stimulatory response would be inhibited as a result of exposure to AG1296, two different T cell proliferative assays were conducted. […] In this standard mixed lymphocyte reaction, equal numbers of stimulator and responder cells (10^6 of each) were mixed in a 96 well plate, incubated for 4 days, pulsed with 3H-thymidine, and proliferation was determined by analyzing incorporation of tritium. DC-stimulated proliferation was also determined by incubating BM derived DCs (day 8, as above) at a ratio of 1:10 with responder allogeneic splenocytes, in the presence (10 μm) or absence of AG1296.

[1] = system: Dendritic cells (CD11c+ cells); assay: Apoptosis, survival of mature bone-marrow DCs treated with FLT3 inhibitors (FACS, Annexin V); assay type: cell-based, mice; conditions: for apoptosis in DCs (Annexin V binding): 24 hours; for survival and stimulation of the DCs: mature DCs, dose-response analysis, in the presence of GM-CSF+/−FL
Method: The survival and function of the DCs was investigated when exposed to FLT3 inhibitors. Mature DCs were incubated in a dose-response analysis to CEP 701, 5214 and AG 1296 in the presence of GM-CSF+/−FL.
Bone marrow (BM) was flushed from the extremities of mice with PBS, red blood cells (RBCs) were lysed in hypotonic buffer, and after washing the cells were plated at 2×10^6 cells/ml in GM-CSF (1000 U/ml) or GM+FL (100 ng/ml) containing medium. On days 2, 4, and 6, non-adherent cells were removed and adherent cells were washed prior to the addition of fresh medium. On day 8, non-adherent mature DCs were harvested, and replated in the absence or presence of CEP-701 at 5 or 50 nM. After 24 hours, cells were then stained for FACS analysis. CD11c+ cells were assessed for MHC class II expression and Annexin V binding (FIG. 1A).
After washing, the cells were plated at 2×10^6 cells/ml in GM-CSF (1000 U/ml)+FL (100 ng/ml) containing medium. On days 2, 4, and 6, non-adherent cells were removed and adherent cells were washed prior to the addition of fresh medium. On day 8, non-adherent mature DCs were harvested, and replated in the absence or presence of AG 1296. After 24 hours, cells were stained for FACS analysis. Dendritic cells (CD11c+ cells) were assessed for CD86 expression and Annexin V binding (FIG. 1B). […] For DCs to activate T cells, they present antigen bound to MHC molecules and express co-stimulatory proteins on their surfaces.

T cells [2] = assay: DC-stimulated proliferation of T cells (3H incorporation); assay type: cell-based, mice
Method: as §1

[3] = system: co-stimulatory molecules B7.2 (CD 86) and B7-DC; assay: Expression of co-stimulatory molecules B7.2 (CD 86) and B7-DC on DCs; assay type: cell-based, Murine; conditions: AG1296 at 0, 1, or 10 μM
Method: FIG. 6 depicts the treatment of DCs with AG1296 at either 0, 1, or 10 μM and then analyzed for the expression of co-stimulatory molecules B7.2 (CD 86) and B7-DC.
(§2) To investigate the role of FL/FLT3 stimulation in regulating costimulatory protein expression by DC, […] or GM-CSF plus FL, were analyzed by Northern blotting for expression of B7-DC, a member of the B7 family of co-stimulatory molecules. […] The inhibition of FLT3 signaling led to a down-regulation of B7-DC as well as B7.2 (CD 86) in these DCs (FIG. 6).

T cells [4] = assay: Direct stimulation of T cells on anti-CD3 plates with anti-CD28 antibody; assay type: cell-based; conditions: anti-CD3 coated plates, 2 days, 3H
Method: T cells were then stimulated with anti-CD28 antibody. After 2 days, 3H was added, and the proliferation determined.

[5] = system: transgenic T cells that are specific for HA; assay: In vivo autoreactive T cell expansion in HA transgenic (137) mice given 6.5 T cells; conditions: 137 mice treated 3 days prior to and 5 days after T cell transfer
[6] = Established experimental autoimmune encephalomyelitis (EAE), MOG 35-55; assay type: in vivo, C57BL/6 mice; conditions: 20 mg/kg, started within one day of initial symptoms, scored daily, blinded
Method: C57BL/6 mice were injected with 100 micrograms of the Established Experimental Allergic Encephalitomyelitis (EAE) inducing peptide MOG 35-55 in CFA with 400 micrograms of Mycobacterium tuberculosis. On the day of immunization and 48 hours later, mice were boosted with pertussis toxin, following standard protocols. […] Scores were as follows: 0 (no symptoms), 0.5 (partial loss of tail tonicity), 1 (full loss of tail tonicity), 2 (affected gait), 2.5 (partial hind limb paralysis) 3 (full hind limb paralysis) 4 (front and hind paralysis) 5 (moribund). 10 mice/group were treated in the study shown.

[7] = system: CD11c and NK cell populations; assay: Immune cell populations in spleens and lymph nodes of treated mice (FACS); assay type: in vivo, BALB/c mice; conditions: 20 mg/kg twice a day for 5 days
Method: BALB/c mice were treated with 20 mg/kg of CEP701 or vehicle twice a day for 5 days, and then were analyzed for their immune populations. Spleens and lymph nodes were harvested and collagenase digested to release DCs from the stroma. Cells were then washed and analyzed by FACS for the presence of T (CD3+/DX5−), NK (CD3−,DX5+), B (B220+, CD11c−) or DCs (CD11c+).

axons = assay: Degenerating axonal fibers in medial dorsal column of MOG-immunized mice; assay type: in vivo; conditions: cervical level 5, 210 days post disease induction, versus vehicle
Source text: In reference to FIG. 10, intact brain and spinal cords were removed from mice that were immunized with MOG peptide, and either treated with the vehicle control or CEP-701 after symptom onset. Following treatment and scoring, the mice were kept for an additional 2 months, then sacrificed and the CNS prepared for evaluation by preservation in formalin. Thin plastic sections ([…]) were generated from cervical level 5, followed by staining in Toluidine blue and axons were visualized. Total axon numbers and actively degenerating fibers in a predefined area of the medial dorsal column were enumerated by an experienced examiner in a blinded fashion. Plots show the number of degenerating axonal fibers in the defined field area for the sections of CEP-701 treated mice compared to vehicle control mice at 210 days post disease induction.

B7-DC = assay: Northern blot for hB7-DC in human bone marrow cells treated with cytokines; assay type: cell-based; conditions: FL added to GM-CSF
Method: as §2

COc1cc2ncc(-c3ccccc3)nc2cc1OC [AG1296]
mixed lymphocyte reaction proliferation (BALB/c splenocytes; allogeneic spleen cells, 10^6 each, 4 days, 3H-thymidine, AG1296 10 μm): inhibition
apoptosis in DCs (Annexin V binding) ([1]; AG 1296 at 0, 1, and 10 μM, DCs generated in GM-CSF + FL): confirmed; also recorded: induced apoptosis in DCs in a dose-dependent fashion
apoptosis in DCs (Annexin V binding) ([1]; AG 1296 at 0, 1, and 10 μM, DCs generated in GM-CSF + FL, listed as AG 1296): induction of apoptosis in a significant fraction of the DCs
survival and stimulation of the DCs [1]: decrease in survival and stimulation
T cell proliferation induced by DCs (T cells [2]; BM derived DCs 1:10 with allogeneic splenocytes, AG1296 10 μm): decrease in T cell proliferation; also recorded: inhibited
expression of co-stimulatory molecule B7-DC on DCs [3]: down regulated
expression of co-stimulatory molecule B7.2 (CD 86) on DCs [3]: down regulated

C[C@]12O[C@H](C[C@]1(O)CO)n1c3ccccc3c3c4c(c5c6ccccc6n2c5c31)CNC4=O [CEP-701]
proliferation of directly stimulated T cells (T cells [4]): does not inhibit their proliferation
autoreactive T cell expansion, as measured by thy 1.1 ([5]; listed as CEP 701): decreases an in vivo autoreactive immune response
autoreactive T cell expansion, as measured by thy 1.1 ([5]; listed as CEP701): decrease in the autoreactive T cell expansion
EAE clinical score (0-5) [6]: lower scores
B (B220+, CD11c−) cell population [7]: no significant change
DC (CD11c+) population [7]: decreases
NK (CD3−,DX5+) population [7]: decreases
T (CD3+/DX5−) cell population [7]: no significant change
mixed lymphocyte reaction (MLR) response (BALB/c splenocytes; BALB/c splenocytes substituted for DCs, CEP701): inhibited
apoptosis in DCs (Annexin V binding) ([1]; CEP-701 at 5 or 50 nM, DCs generated in GM-CSF alone or GM-CSF and FL): induced apoptosis; also recorded: induction of apoptosis in a significant fraction of the DCs
survival and stimulation of the DCs [1]: decrease in survival and stimulation
DC-based proliferation of T cells (T cells [2]; BALBc DCs treated with CEP701, plated with C57BL/6 splenocytes, 3 days, 3H): robust effect on decreasing proliferation of T cells
number of degenerating axonal fibers (neurodegeneration) (axons): decrease in neurodegeneration

CC(C)OCc1ccc2c(c1)c1c3c(c4c(c1n2CCCO)Cc1ccccc1-4)C(=O)NC3 [CEP-5214]
apoptosis in DCs ([1]; CEP-5214, data not shown): confirmed
survival and stimulation of the DCs [1]: decrease in survival and stimulation

B1: FL: FLT3 Ligand (FL), ligand that stimulates the FLT3 receptor (protein, UniProt P49771 27-235, looked up)
Fms-related tyrosine kinase 3 …: TQDCSFQHSPISSDFAVKIRELSDYLLQDYPVTVASNLQDEELCGGLWRLVLAQRWMERLKTVAGSKMQGLLERVNTEIHFVTKCAFQPPPSCLRFVQTNISRLLQETSEQLVALKPWITRQNFSRCLELQCQPDSSTLPPPWSPRPLEATAPTAPQPPLLLLLLLPVGLLLLAAAWCLHWQRTRRRTPRPGEQVPPVPSPQDLLLVEH
B7-DC expression (Northern blot) (B7-DC): greatly up-regulates
